Source: patent US20230347344A1, “COMBINATION OF PHARMACOLOGICAL AND MICROFLUIDIC FEATURES FOR IMPROVED PLATELETS PRODUCTION” (HEMOSTOD SA, priority 2015, published 2023)

Key:
[1] = system: platelets produced from megakaryocytes; assay: Flow cytometry analysis of platelet receptors (CD41, CD42b, CD61, CD49b) on produced platelets; type: cell-based, human; conditions: for proportion of CD41+/CD42b+ platelet: compound during 2 hours of perfusion, without or with previous introduction during culture stage; for proportion of platelets expressing CD42b receptor: compound in megakaryocyte suspension during 2 h perfusion vs without (10 μM ROCK inhibitor; 25 μM GM6001)
Method: (§1) CD34^+ cells were isolated from human umbilical cord blood (UCB) by an immunomagnetic technique (Miltenyi Biotec, Paris, France) as previously reported (see Poirault-Chassac et al, “Notch/Delta4 signaling inhibits human megakaryocytic terminal differentiation”, Blood, vol. 116, no 25, p. 5670-5678, 2010). These blood samples were obtained after informed consent and approval from our Institute Ethics Committee and in accordance with the Declaration of Helsinki. CD34^+ cells were cultured in a humid atmosphere at 37° C. in 5% CO2 in complete medium consisting of Iscove modified Dulbecco medium (IMDM; Gibco Life Technologies, Saint-Aubin, France) supplemented with 15% BIT 9500 serum substitute (Stem Cells Technologies, Grenoble, France), α-monothioglycerol (Sigma-Aldrich, Saint-Quentin Fallavier, France) and liposomes (phosphatidyl-choline, cholesterol and oleic acid; SigmaAldrich). Human recombinant stem cell factor (SCF, 20 ng/mL; Miltenyi Biotec) and thrombopoietin peptide agonist AF13948 (TPO, 50 nM) (see Dunois-Lardé et al, “Exposure of human megakaryocytes to high shear rates accelerates platelet production”, Blood, vol. 114, no 9, p. 1875-1883, 2009) were added once at day 0 to the culture medium followed by addition of 20 nM TPO without SCF at day 5. Mature megakaryocytes are obtained after 12-14 days of culture. Removal of platelets formed during culture and immediately prior to shear exposure was performed by means of a BSA gradient according to the methods reported in (Robert A, Cortin V, Gamier A, Pineault N. Megakaryocyte and platelet production from human cord blood stem cells. Methods Mol Biol. 2012; 788: 219-47). The concentration was then adjusted to 200 000 megakaryocytes/mL. 10 μM ROCK inhibitor (Y27632, Sigma Aldrich, Saint Quentin Fallavier, France) may be added to the culture of megakaryocytes at day 8 of culture. Addition of 10 μM ROCK inhibitor was performed before introducing megakaryocytes suspension into the inlet chamber of the microfluidic device. 6.25 μM nicotinamide (N0636, Sigma Aldrich, Saint Quentin Fallavier, France) was added to the culture of megakaryocytes at day 8 of culture. Addition of 6.25 μM nicotinamide was performed before introducing megakaryocyte suspension into the inlet chamber of the microfluidic device. 20 μM blebbistatin (203390, Calbiochem) was added to the culture of megakaryocytes at day 8 of culture. Addition of 20 μM blebbistatin was performed before introducing megakaryocyte suspension into the inlet chamber of the microfluidic device. 10 μM latrunculin-A (sc202691, Santa Cruz Biotechnology) was added to the culture of megakaryocytes at day 8 of culture. Addition of 10 μM latrunculin-A was performed before introducing megakaryocyte suspension into the inlet chamber of the microfluidic device. 25 μM GM6001 (ab120845, Abcam) was added to the culture of megakaryocytes at day 8 of culture. Addition of 25 μM GM6001 was performed before introducing megakaryocyte suspension into the inlet chamber of the microfluidic device
Platelet production in the microfluidic device of geometry 2 was compared to control samples, consisting of platelet production from twenty-four hours static condition without the microfluidic chip. Expression of CD41 and CD42 antigens was characterized using a flow cytometer BD Fluorescence Accuri C6 ® (BD Biosciences, Le Pont de Claix, France). Platelets were incubated with fluorescein isothiocyanate (FITC)-conjugated anti-human CD41 (αIIb), R-phycoerythrin (PE)-conjugated anti-human CD42b (GPIbα) (both from Beckman Coulter, Villepinte, France) and FITC-conjugated anti-human activated αIIbb3 (BD Biosciences) during 15 minutes at 22° C., Controls were performed using FITC mouse IgG1 (Beckman Coulter), PE mouse IgG1 (Beckman Coulter). Single color flow cytometry analysis of platelet receptors was performed using the GP screen assay (Biocytex, Marseille, France). […]

megakaryocytes [2] = assay: Megakaryocyte capture and elongation in the microfluidic device (surface density of captured and elongated megakaryocytes); type: cell-based, human; conditions: for elongation process and beads-on-a-thread structure formation: compound added to megakaryocyte suspension during perfusion (10 μM ROCK inhibitor; 6.25 μM nicotinamide)
Method: as §1
All the devices are composed of 16 parallel channels organized in a serpentine shape (FIG. 16). The channels were textured on the straight parts (13.2 cm long) and patterned with the parameters: r=15 μm, H=50 μm, H/h=1.
The microfluidic chip was set on the stage of an inverted microscope (DMI6000 B, Leica Microsystems GmbH, Germany). A computer assisted motorized stage control was used to record positions along the channel length. We recorded observation field positions and alternated recording images between them along the experiment time. Differential interference contrast objective was used to record movies and images between 10× and 40×. A CMOS high-speed camera (Fastcam SA3, Photron, USA) was used to record images at frequencies from 0.5 to 1500 Hz.
Surface captured cells were counted manually from the recorded channel images, and cells in suspension were counted with a hematocytometer.

megakaryocytes [3] = assay: Platelet release in the microfluidic device after two hours of perfusion, hemocytometer counting; type: cell-based, human; conditions: compound in suspension during 2 h perfusion stage, absent during culture stage (10 μM ROCK inhibitor; 6.25 μM nicotinamide)
Method: CD34^+ cells were isolated from human umbilical cord blood (UCB) by an immunomagnetic technique (Miltenyi Biotec, Paris, France) as previously reported (see Poirault-Chassac et al, “Notch/Delta4 signaling inhibits human megakaryocytic terminal differentiation”, Blood, vol. 116, no 25, p. 5670-5678, 2010). These blood samples were obtained after informed consent and approval from our Institute Ethics Committee and in accordance with the Declaration of Helsinki. CD34^+ cells were cultured in a humid atmosphere at 37° C. in 5% CO2 in complete medium consisting of Iscove modified Dulbecco medium (IMDM; Gibco Life Technologies, Saint-Aubin, France) supplemented with 15% BIT 9500 serum substitute (Stem Cells Technologies, Grenoble, France), α-monothioglycerol (Sigma-Aldrich, Saint-Quentin Fallavier, France) and liposomes (phosphatidyl-choline, cholesterol and oleic acid; SigmaAldrich). Human recombinant stem cell factor (SCF, 20 ng/mL; Miltenyi Biotec) and thrombopoietin peptide agonist AF13948 (TPO, 50 nM) (see Dunois-Lardé et al, “Exposure of human megakaryocytes to high shear rates accelerates platelet production”, Blood, vol. 114, no 9, p. 1875-1883, 2009) were added once at day 0 to the culture medium followed by addition of 20 nM TPO without SCF at day 5. Mature megakaryocytes are obtained after 12-14 days of culture. […]

megakaryocytes [4] = conditions: cited from earlier work; for megakaryocyte ploidy / polyploidization: culture conditions, literature
[5] = system: platelets produced from megakaryocytes; assay: Activation of produced platelets by TRAP-6 (PAC1 binding, fibrinogen adhesion, tubulin/actin immunofluorescence); type: cell-based, human
Method: Image acquisition was performed with an Axio Observer microscope (Zeiss) at 40×1.6-fold magnification with a QIClick-F-CLR-12 Digital CCD Camera (Q Imaging). Platelets are adherent to fibrinogen.
FIG. 8 is a picture showing two colors flow cytometry analysis of platelets receptors with or without activation of the CD41/CD61 receptor by the agonist peptide of the PAR-1 thrombin receptor (TRAP6). (A) Histogram indicates, within the platelet gate, the % of PAC-1/CD42b positive elements before (black bars) or after (gray bars) TRAP-6 activation of platelets produced in the microfluidic device from megakaryocytes suspension in the absence (+/+2 h) or the presence (+/+2 h Ri) of ROCK inhibitor (Ri). […] No Ri was added during the culture stage. n=1.
Platelet production in the microfluidic device of geometry 2 was compared to control samples, consisting of platelet production from twenty-four hours static condition without the microfluidic chip. Expression of CD41 and CD42 antigens was characterized using a flow cytometer BD Fluorescence Accuri C6 ® (BD Biosciences, Le Pont de Claix, France). […] The number of antigenic sites is determined by converting the fluorescence intensity into corresponding numbers of monoclonal antibodies bound per platelet based on a calibrated bead standard curve. […]

[6] = channels coated at 40 μg·mL^−1, t=35 min, ROCK inhibitor in culture (day 8) and perfusion
[7] = 10 μM ROCK inhibitor in suspension during perfusion, absent during culture stage, count after 35 min of perfusion

## NC(=O)c1cccnc1 [nicotinamide, pyridine-3-carboxamide]
[1]
  proportion of CD41+/CD42b+ platelet: higher
Megakaryocytes [2]
  elongation process and beads-on-a-thread structure formation: No differences
Megakaryocytes [3]
  platelet release vs suspension without compound: higher platelet release
Megakaryocytes [4]
  megakaryocyte ploidy / polyploidization: increases

## CNC(=O)[C@H](Cc1c[nH]c2ccccc12)NC(=O)[C@@H](CC(=O)NO)CC(C)C [GM6001, N-[(2R)-2-(hydroxamidocarbonylmethyl)-4-methylpentanoyl]-L-tryptophan methylamide]
[1]; GM6001 during the culture as well as during the 2 hours perfusion stage
  proportion of platelet CD42b+: increased
[1]
  proportion of platelets expressing CD42b receptor: higher

## C/C1=C/C(=O)O[C@@H]2C[C@@H](CC[C@H](C)/C=C\C=C\CC1)O[C@@](O)([C@@H]1CSC(=O)N1)C2 [latrunculin, Latrunculin A]
[1]
  proportion of CD41+/CD42b+ platelet: higher
Megakaryocytes [4]
  megakaryocyte ploidy / polyploidization: increase
Megakaryocytes [4]; literature (Avanzi et al)
  megakaryocyte apoptosis activation: increase

## VWF: Human von Willebrand factor, used as surface coating of the platelet production channel
Megakaryocytes [2]; [6]
  captured megakaryocytes density, VWF coating vs BSA coating: 5.86±1 fold
  elongated megakaryocytes density, VWF coating vs BSA coating: 7.72±1.32 fold

## O=S(=O)(c1cccc2c(O)nccc12)N1CCCNCC1 [ROCK inhibitor, 1-(1-Hydroxy-5-isoquinolinesulfonyl)homopiperazine]
[1]; ROCK inhibitor during 2 h perfusion, FIG. 6
  characteristics of produced platelets (CD61, CD42b, CD49b receptor density) vs platelets isolated from blood: comparable to those of natural platelets
[1]
  proportion of platelets expressing CD42b receptor: higher
Megakaryocytes [2]; [7]
  captured megakaryocytes density, ROCK inhibitor added vs not added: 1.42±0.13 fold
  elongated megakaryocytes density, ROCK inhibitor added vs not added: 2.98±0.28 fold
Megakaryocytes [2]
  elongation process and beads-on-a-thread structure formation: No differences
[5]; ROCK inhibitor during 2 h perfusion, platelets adherent to fibrinogen, FIG. 7
  tubulin conformation of produced platelets upon TRAP-6 stimulation: tubulin conformation typical of a transient activation
[5]; platelets from suspension with ROCK inhibitor, FIGS. 8 and 9
  conformation of the αIIbβ3 receptors (PAC1 binding) upon TRAP-6 stimulation: activated conformation
Megakaryocytes [3]
  platelet release vs suspension without compound: significant higher platelet release

## Cc1ccc2c(c1)C(=O)C1(O)CCN(c3ccccc3)C1=N2 (centres unmarked) [blebbistatin, 1-Phenyl-1,2,3,4-tetrahydro-4-hydroxpyrrolo[2,3-b]-7-methylquinolin-4-one]
[1]
  proportion of CD41+/CD42b+ platelet: higher
